ChEMBL document CHEMBL2440076, “New triarylpyrazoles as broad-spectrum anticancer agents: design, synthesis, and biological evaluation” (Eur J Med Chem, 2013)

Assays:
Type in all cases: functional
MDA-MB-468 = assay: Growth inhibition of human MDA-MB-468 cells assessed as cell growth at 10 uM after 48 hrs by sulforhodamine B assay; conditions: MDA-MB-468, 48 h, read-out: Activity
UO-31 = assay: Growth inhibition of human UO31 cells assessed as cell growth at 10 uM after 48 hrs by sulforhodamine B assay; conditions: UO-31, 48 h, read-out: Activity
PC-3 = assay: Growth inhibition of human PC3 cells assessed as cell growth at 10 uM after 48 hrs by sulforhodamine B assay; conditions: PC-3, 48 h, read-out: Activity
OVCAR-5 = assay: Growth inhibition of human OVCAR5 cells assessed as cell growth at 10 uM after 48 hrs by sulforhodamine B assay; conditions: OVCAR-5, 48 h, read-out: Activity
OVCAR-8 = assay: Growth inhibition of human OVCAR8 cells assessed as cell growth at 10 uM after 48 hrs by sulforhodamine B assay; conditions: OVCAR-8, 48 h, read-out: Activity
OVCAR-3 = assay: Growth inhibition of human OVCAR3 cells assessed as cell growth at 10 uM after 48 hrs by sulforhodamine B assay; conditions: OVCAR-3, 48 h, read-out: Activity
SK-MEL-2 = assay: Growth inhibition of human SK-MEL-2 cells assessed as cell growth at 10 uM after 48 hrs by sulforhodamine B assay; conditions: SK-MEL-2, 48 h, read-out: Activity
M14 = assay: Growth inhibition of human M14 cells assessed as cell growth at 10 uM after 48 hrs by sulforhodamine B assay; conditions: M14, 48 h, read-out: Activity
SW-620 = assay: Growth inhibition of human SW620 cells assessed as cell growth at 10 uM after 48 hrs by sulforhodamine B assay; conditions: SW-620, 48 h, read-out: Activity
HT-29 = assay: Growth inhibition of human HT-29 cells assessed as cell growth at 10 uM after 48 hrs by sulforhodamine B assay; conditions: HT-29, 48 h, read-out: Activity
KM12 = assay: Growth inhibition of human KM12 cells assessed as cell growth at 10 uM after 48 hrs by sulforhodamine B assay; conditions: KM12, 48 h, read-out: Activity
HCT-15 = assay: Growth inhibition of human HCT15 cells assessed as cell growth at 10 uM after 48 hrs by sulforhodamine B assay; conditions: HCT-15, 48 h, read-out: Activity
NCI-H522 = assay: Growth inhibition of human NCI-H522 cells assessed as cell growth at 10 uM after 48 hrs by sulforhodamine B assay; conditions: NCI-H522, 48 h, read-out: Activity
NCI-H23 = assay: Growth inhibition of human NCI-H23 cells assessed as cell growth at 10 uM after 48 hrs by sulforhodamine B assay; conditions: NCI-H23, 48 h, read-out: Activity
RPMI-8226 = assay: Growth inhibition of human RPMI8226 cells assessed as cell growth at 10 uM after 48 hrs by sulforhodamine B assay; conditions: RPMI-8226, 48 h, read-out: Activity
MOLT-4 = assay: Growth inhibition of human MOLT4 cells assessed as cell growth at 10 uM after 48 hrs by sulforhodamine B assay; conditions: MOLT-4, 48 h, read-out: Activity

Row | SMILES | growth at 10 µM (MDA-MB-468) | growth at 10 µM (UO-31) | growth at 10 µM (PC-3) | growth at 10 µM (OVCAR-5) | growth at 10 µM (OVCAR-8) | growth at 10 µM (OVCAR-3) | growth at 10 µM (SK-MEL-2) | growth at 10 µM (M14) | growth at 10 µM (SW-620) | growth at 10 µM (HT-29) | growth at 10 µM (KM12) | growth at 10 µM (HCT-15) | growth at 10 µM (NCI-H522) | growth at 10 µM (NCI-H23) | growth at 10 µM (RPMI-8226) | growth at 10 µM (MOLT-4)
1 | COc1cc(-c2nn(-c3cccc(NC(=O)c4ccc(Br)c(C)c4)c3)cc2-c2ccncc2)ccc1Cl | 83.5% | 53.8% | 59.4% | 90.7% | 77.3% | 90.9% | 58.2% | 74.7% | 82.7% | 66.6% | 82.7% | 67.8% | 45.1% | 86.9% | 64.7% | 68.7%
2 | COc1cc(-c2nn(-c3cccc(NC(=O)Nc4ccccc4)c3)cc2-c2ccncc2)ccc1Cl | 83.4% | 56.5% | 52.5% | 91.3% | 77.9% | 86.4% | 77% | 85.7% | 82.8% | 84% | 73.7% | 84.5% | 67.4% | 100% | 68% | 57%
3 | Cc1cc(C(=O)Nc2cccc(-n3cc(-c4ccncc4)c(-c4ccc(Cl)c(O)c4)n3)c2)ccc1Br | 93.2% | 74.7% | 86.8% | 109% | 95.1% | 104% | 106% | 89.5% | 125% | 107% | 97.3% | 97.4% | 95.2% | 97.9% | 92.1% | 76.1%
4 | O=C(Nc1cccc(-n2cc(-c3ccncc3)c(-c3ccc(Cl)c(O)c3)n2)c1)c1ccc(Cl)c(C(F)(F)F)c1 | 98.2% | 81.2% | 85.7% | 99.6% | 96.8% | 95.8% | 93.7% | 82.5% | 112% | 105% | 88.4% | 92.9% | 94.4% | 105% | 98.1% | 79.5%
